From US20170298051A1, “ACTIVATOR OF ADIPONECTIN RECEPTOR” (THE UNIVERSITY OF TOKYO, priority 2013, published 2017)
pKd: −log10 of the molar value.

Target: T1, Human AdipoR2 (Homo sapiens, UniProt Q86V24)
T1 construct: made in house
T1 sequence (Q86V24 1-386): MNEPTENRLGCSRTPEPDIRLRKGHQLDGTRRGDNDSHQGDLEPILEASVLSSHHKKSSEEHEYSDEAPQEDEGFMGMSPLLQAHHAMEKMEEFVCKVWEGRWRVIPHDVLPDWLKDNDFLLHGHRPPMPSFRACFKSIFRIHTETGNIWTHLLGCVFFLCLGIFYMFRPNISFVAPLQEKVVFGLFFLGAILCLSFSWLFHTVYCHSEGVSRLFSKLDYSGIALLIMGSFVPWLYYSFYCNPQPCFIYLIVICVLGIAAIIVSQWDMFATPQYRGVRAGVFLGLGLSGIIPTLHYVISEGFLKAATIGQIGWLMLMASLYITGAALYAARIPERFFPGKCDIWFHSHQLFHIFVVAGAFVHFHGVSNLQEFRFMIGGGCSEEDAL
Experiment: Surface plasmon resonance, affinity for AdipoR2
Assay type: binding
Settings: SPR
Description: Surface plasmon resonance measurements were performed by a BIAcore X100 system (GE Healthcare) and sensor chip SA (GE Healthcare). Human AdipoR1 and AdipoR2 were expressed with the baculovirus system, and purified to homogeneity. The AdipoR1 and AdipoR2 samples were then reconstituted into egg-phosphatidylcholine liposomes containing biotinyl phosphatidylethanolamine (Avanti), as previously reported^a. Mouse full-length adiponectin was generated as previously described^b,c,d,e. AdipoR1 and AdipoR2 were immobilized onto a sensor chip SA to levels of 2,500-3,000 response units (RU) using standard immobilization protocols (GE Healthcare).
Experiments were performed at 25° C. using AdipoRon (0.49-31.25 μM) and adiponectin (1.5 ng-3.75 μg) and using electrophoresis buffer (20 mM Hepes (pH 7.4), 200 mM NaCl, 10% glycerol, […] surfactant P20). Biacore X100 Evaluation Software was used to determine the equilibrium dissociation constant (KD) of the compound or proteins.

## O=C(COc1ccc(C(=O)c2ccccc2)cc1)NC1CCN(Cc2ccccc2)CC1 [Compound 73, 2-(4-benzoyl-phenoxy)-N-(1-benzylpiperidin-4-yl)acetamide]
  Rmax: 8.6 RU
25° C., read-out: equilibrium dissociation constant (KD)
  pKd: 5.51
